Common to all, as to assay type: cell-based
For assay [1], the target named is T1, GIP receptor (Homo sapiens, UniProt P48546).
T1 sequence (P48546 22-466): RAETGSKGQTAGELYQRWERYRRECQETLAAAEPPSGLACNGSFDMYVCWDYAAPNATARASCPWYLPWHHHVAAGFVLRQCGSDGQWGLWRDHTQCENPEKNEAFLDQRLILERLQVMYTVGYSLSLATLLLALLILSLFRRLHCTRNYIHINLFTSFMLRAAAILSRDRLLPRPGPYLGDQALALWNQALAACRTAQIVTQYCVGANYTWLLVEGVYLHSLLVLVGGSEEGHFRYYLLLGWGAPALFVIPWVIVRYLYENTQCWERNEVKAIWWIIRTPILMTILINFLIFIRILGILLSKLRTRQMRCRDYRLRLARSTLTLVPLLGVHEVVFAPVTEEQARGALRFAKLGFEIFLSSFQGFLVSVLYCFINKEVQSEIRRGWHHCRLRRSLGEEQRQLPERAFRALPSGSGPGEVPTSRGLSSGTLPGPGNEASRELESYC
Description: PathHunter β-arrestin assay, GIP receptor. Further details: host or cells: PathHunter CHO-K1 GIPR β-Arrestin Cell Line.
Description: β-arrestin-2 recruitment for GLP-1 receptor or GIP receptor was measured using the DiscoverX PathHunter Detection Kit and PathHunter® CHO-K1 GLPIR β-Arrestin Cell Line or PathHunter® CHO-K1 GIPR β-Arrestin Cell Line, respectively). Briefly, cells were grown in Ham's F12 Nutrient Mix with 10% FBS and lifted with Cell dissociation buffer, Enzyme free, PBS based (ThermoFisher). Harvested cells were pelleted and resuspended in Assay Complete Cell Plating Reagent 2 and 5000 cells per well were plated in tissue culture treated 384-well small volume white assay plates. Plates were then incubated at 37° C. and 5% CO2 overnight. The media was then replaced with fresh Assay Complete Cell Plating Reagent 2. Cells were then treated with 10 nl compound in DMSO using an ECHO 550 acoustic dispenser (Labcyte) in a 20-point dose response format in duplicate for 90 min at 37° C. The assay was then completed according to the manufacturer's instructions. Luminescence was measured using a Perkin Elmer Envision plate reader. Raw data was normalized to the maximum signal from GLP-1 or GIP (high) and DMSO (low). Dose response curves were analyzed using GraphPad Prism 9.0.

The target in assay [2] is T2, GLP-1 receptor (Homo sapiens, UniProt P43220). As to the kind of experiment: PathHunter β-arrestin assay, GLP-1 receptor. Further details: host or cells: PathHunter CHO-K1 GLP1R β-Arrestin Cell Line.
T2 sequence (P43220 24-463): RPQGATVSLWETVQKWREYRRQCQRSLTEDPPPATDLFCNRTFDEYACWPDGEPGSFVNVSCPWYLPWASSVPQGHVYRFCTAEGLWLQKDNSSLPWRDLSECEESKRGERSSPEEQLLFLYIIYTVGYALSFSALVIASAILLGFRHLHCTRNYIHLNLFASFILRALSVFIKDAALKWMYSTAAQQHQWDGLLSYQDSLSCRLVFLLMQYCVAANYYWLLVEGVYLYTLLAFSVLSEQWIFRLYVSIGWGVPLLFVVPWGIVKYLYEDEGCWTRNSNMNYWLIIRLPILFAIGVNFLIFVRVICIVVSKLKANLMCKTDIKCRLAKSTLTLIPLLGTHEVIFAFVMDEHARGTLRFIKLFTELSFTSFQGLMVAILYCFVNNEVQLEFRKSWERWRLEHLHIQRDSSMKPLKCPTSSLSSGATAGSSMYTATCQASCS
The target of assay [3] is T1, GIP receptor. Description: HitHunter cAMP assay, GIP receptor. The note with it: for Emax: read-out: Emax GIP-1R.
Assay [4] has as its target T2, GLP-1 receptor. As to the kind of experiment: HitHunter cAMP assay, GLP-1 receptor. The conditions noted are these: for Emax: read-out: Emax GLP-1R.
The mark [5] stands for this setting: β-arrestin-2 recruitment, PathHunter CHO-K1 GIPR β-Arrestin Cell Line, 90 min at 37° C., normalized to GIP, read-out: GIPR β Arrestin EC50.
The mark [6] stands for this setting: β-arrestin-2 recruitment, PathHunter CHO-K1 GLP1R β-Arrestin Cell Line, 90 min at 37° C., normalized to GLP-1, read-out: GLP-1R β Arrestin EC50.
Where [7] appears, read: CHO cells stably expressing GIP receptor, cAMP accumulation, 30 min, read-out: EC50 GIP-1R.
Setting [8] is: CHO cells, cAMP, normalized to maximum signal from GIP (high) and DMSO (low).
Where [9] appears, read: CHO cells stably expressing human GLP-1 receptor, cAMP accumulation, 30 min, read-out: EC50 GLP-1R.
[10] abbreviates: CHO cells, cAMP, normalized to maximum signal from GLP-1 (high) and DMSO (low).

Like-named read-outs stand apart in the source and are kept apart here. *1 amine or outer side, *2 acyl side, *3 side chain or, on linkers, in order; H or OH if unused. Where a SMILES comes first, the peptide text is derived from it. Side-chain parts run from the residue outwards. [ ]: non-standard residue; d: D form. The star is where a group is joined. C20 diacid = O=C(O)CCCCCCCCCCCCCCCCCCC(=O)*; γGlu = O=C(O)[C@H](CCC(=O)[*:2])N[*:1]; X17 = CC(C)(C(=O)*)c1ccc(F)c(F)c1; X5 = O=C(C1(c2ccc(F)cc2F)CCCC1)*; NH(4-Me-phenyl) = Cc1ccc(N*)cc1; X78 = CC(C)(C(=O)*)C1CCCCC1; AEEA = NCCOCCOCC(=O)O; Aib = CC(C)(N)C(=O)O; CO = O=C([*:1])[*:2]; βAla = NCCC(=O)O

For the compound `CC[C@H](C)[C@H](NC(=O)[C@H](CO)NC(=O)[C@H](Cc1ccc(O)cc1)NC(=O)[C@H](CC(=O)O)NC(=O)[C@H](CO)NC(=O)[C@@H](NC(=O)[C@](C)(Cc1ccccc1F)NC(=O)[C@@H](NC(=O)CNC(=O)[C@H](CCC(=O)O)NC(=O)CCNC(=O)C1(c2ccccc2)CNC(=O)C1)[C@@H](C)O)[C@@H](C)O)C(=O)N[C@@H](Cc1ccc(O)cc1)C(=O)N[C@@H](CC(C)C)C(=O)N[C@@H](CC(=O)O)C(=O)N[C@@H](CCCCN)C(=O)N[C@@H](CCC(N)=O)C(=O)N[C@@H](C)C(=O)N[C@@H](C)C(=O)NC(C)(C)C(=O)N[C@@H](CCC(=O)O)C(=O)N[C@@H](Cc1ccccc1)C(=O)N[C@H](C(=O)N[C@@H](CC(N)=O)C(=O)N[C@@H](Cc1c[nH]c2ccccc12)C(=O)N[C@@H](CC(C)C)C(=O)N[C@@H](CC(C)C)C(=O)N[C@@H](C)C(=O)NCC(=O)NCC(=O)N1CCC[C@H]1C(=O)N[C@@H](CO)C(=O)N[C@@H](CO)C(=O)NCC(=O)N[C@@H](C)C(=O)N1CCC[C@H]1C(=O)N1CCC[C@H]1C(=O)N1CCC[C@H]1C(=O)N[C@@H](CO)C(=O)N[C@@H](CCCCNC(=O)COCCOCCNC(=O)COCCOCCNC(=O)CC[C@H](NC(=O)CCCCCCCCCCCCCCCCCCC(=O)O)C(=O)O)C(N)=O)C(C)C` (stereo partly drawn) [Compound 142], the EC50 in assay [1] (setting [5]) is < 1000 nM; in assay [2] (setting [6]), < 1000 nM; in assay [3] (setting [7]) it was < 0.1 nM; in assay [4] (setting [9]), 0.1 to 1 nM. Besides, the Emax in assay [3] (setting [8]) and in assay [4] (setting [10]) was 99% each time.

For the compound `CC[C@H](C)[C@H](NC(=O)[C@H](CC(C)C)NC(=O)[C@H](Cc1c[nH]c2ccccc12)NC(=O)[C@H](CCC(N)=O)NC(=O)[C@@H](NC(=O)[C@H](Cc1ccccc1)NC(=O)[C@H](C)NC(=O)[C@H](CCCCNC(=O)COCCOCCNC(=O)COCCOCCNC(=O)CC[C@H](NC(=O)CCCCCCCCCCCCCCCCCCC(=O)O)C(=O)O)NC(=O)[C@H](CCC(N)=O)NC(=O)[C@H](C)NC(=O)[C@@H](NC(=O)[C@H](CCCCN)NC(=O)[C@H](CC(=O)O)NC(=O)[C@H](CC(C)C)NC(=O)C(C)(C)NC(=O)[C@@H](NC(=O)[C@H](CO)NC(=O)[C@H](Cc1ccc(O)cc1)NC(=O)[C@H](CC(=O)O)NC(=O)[C@H](CO)NC(=O)[C@@H](NC(=O)[C@H](Cc1ccccc1)NC(=O)[C@@H](NC(=O)CNC(=O)[C@H](CCC(=O)O)NC(=O)CCNC(=O)[C@H](C)NC(=O)Nc1ccc(C)cc1)[C@@H](C)O)[C@@H](C)O)[C@@H](C)CC)[C@@H](C)CC)C(C)C)C(=O)N[C@@H](C)C(=O)NCC(=O)NCC(=O)N1CCC[C@H]1C(=O)N[C@@H](CO)C(=O)N[C@@H](CO)C(=O)NCC(=O)N[C@@H](C)C(=O)N1CCC[C@H]1C(=O)N1CCC[C@H]1C(=O)N1CCC[C@H]1C(=O)N[C@@H](CO)C(N)=O` [Compound 272] ({NH(4-Me-phenyl)-CO}-A[βAla]EGTFTSDYSI[Aib]LDKIAQK([AEEA-AEEA-γGlu-C20 diacid])AFVQWLIAGGPSSGAPPPS-NH2), the 50% effective concentration (EC50) in assay [1] was > 1000 nM; in assay [2], > 1000 nM; in assay [3], 10 to 100 nM; in assay [4] it was 10 to 100 nM. Further, the figures for the Emax in assay [3] (CHO) and in assay [4] (CHO) were 91% and 75%, respectively.

As for `CC[C@H](C)[C@H](NC(=O)[C@H](CC(C)C)NC(=O)[C@H](Cc1c[nH]c2ccccc12)NC(=O)[C@H](CCC(N)=O)NC(=O)[C@@H](NC(=O)[C@H](Cc1ccccc1)NC(=O)[C@H](C)NC(=O)[C@H](CCCCNC(=O)COCCOCCNC(=O)COCCOCCNC(=O)CC[C@H](NC(=O)CCCCCCCCCCCCCCCCCCC(=O)O)C(=O)O)NC(=O)[C@H](CCC(N)=O)NC(=O)[C@H](C)NC(=O)[C@@H](NC(=O)[C@H](CCCCN)NC(=O)[C@H](CC(=O)O)NC(=O)[C@H](CC(C)C)NC(=O)C(C)(C)NC(=O)[C@@H](NC(=O)[C@H](CO)NC(=O)[C@H](Cc1ccc(O)cc1)NC(=O)[C@H](CC(=O)O)NC(=O)[C@H](CO)NC(=O)[C@@H](NC(=O)[C@H](Cc1ccccc1)NC(=O)[C@@H](NC(=O)CNC(=O)[C@H](CCC(=O)O)NC(=O)CCNC(=O)C1(c2ccc(F)cc2F)CCCC1)[C@@H](C)O)[C@@H](C)O)[C@@H](C)CC)[C@@H](C)CC)C(C)C)C(=O)N[C@@H](C)C(=O)NCC(=O)NCC(=O)N1CCC[C@H]1C(=O)N[C@@H](CO)C(=O)N[C@@H](CO)C(=O)NCC(=O)N[C@@H](C)C(=O)N1CCC[C@H]1C(=O)N1CCC[C@H]1C(=O)N1CCC[C@H]1C(=O)N[C@@H](CO)C(N)=O` [Compound 220] ({X5-βAla}-EGTFTSDYSI[Aib]LDKIAQK([AEEA-AEEA-γGlu-C20 diacid])AFVQWLIAGGPSSGAPPPS-NH2), the EC50 is < 1000 nM in assay [1] (setting [5]), > 1000 nM in assay [2] (setting [6]), 0.1 to 1 nM in assay [3] (setting [7]) and 0.1 to 1 nM in assay [4] (setting [9]). Moreover, the values for the Emax in assay [3] (setting [8]) and in assay [4] (setting [10]) were 108% and 102%, respectively.

Take `CC[C@H](C)[C@H](NC(=O)[C@H](CC(C)C)NC(=O)[C@H](Cc1c[nH]c2ccccc12)NC(=O)[C@H](CCC(N)=O)NC(=O)[C@@H](NC(=O)[C@H](Cc1ccccc1)NC(=O)[C@H](C)NC(=O)[C@H](CCCCNC(=O)COCCOCCNC(=O)COCCOCCNC(=O)CC[C@H](NC(=O)CCCCCCCCCCCCCCCCCCC(=O)O)C(=O)O)NC(=O)[C@H](CCC(N)=O)NC(=O)[C@H](C)NC(=O)[C@@H](NC(=O)[C@H](CCCCN)NC(=O)[C@H](CC(=O)O)NC(=O)[C@H](CC(C)C)NC(=O)C(C)(C)NC(=O)[C@@H](NC(=O)[C@H](CO)NC(=O)[C@H](Cc1ccc(O)cc1)NC(=O)[C@H](CC(=O)O)NC(=O)[C@H](CO)NC(=O)[C@@H](NC(=O)[C@H](Cc1ccccc1)NC(=O)[C@@H](NC(=O)CNC(=O)[C@H](CCC(=O)O)NC(=O)CCNC(=O)C(C)(C)C1CCCCC1)[C@@H](C)O)[C@@H](C)O)[C@@H](C)CC)[C@@H](C)CC)C(C)C)C(=O)N[C@@H](C)C(=O)NCC(=O)NCC(=O)N1CCC[C@H]1C(=O)N[C@@H](CO)C(=O)N[C@@H](CO)C(=O)NCC(=O)N[C@@H](C)C(=O)N1CCC[C@H]1C(=O)N1CCC[C@H]1C(=O)N1CCC[C@H]1C(=O)N[C@@H](CO)C(N)=O` [Compound 205] ({X78-βAla}-EGTFTSDYSI[Aib]LDKIAQK([AEEA-AEEA-γGlu-C20 diacid])AFVQWLIAGGPSSGAPPPS-NH2): the EC50 in assay [1] (setting [5]) was > 1000 nM; in assay [2] (setting [6]) it was > 1000 nM; in assay [3] (setting [7]), 10 to 100 nM; in assay [4] (setting [9]), 1 to 10 nM. Moreover, the Emax in assay [3] (setting [8]) and in assay [4] (setting [10]) was 99% throughout.

With `CC[C@H](C)[C@H](NC(=O)[C@H](CC(C)C)NC(=O)[C@H](Cc1c[nH]c2ccccc12)NC(=O)[C@H](CCC(N)=O)NC(=O)[C@@H](NC(=O)[C@H](Cc1ccccc1)NC(=O)[C@H](C)NC(=O)[C@H](CCCCNC(=O)COCCOCCNC(=O)COCCOCCNC(=O)CC[C@H](NC(=O)CCCCCCCCCCCCCCCCCCC(=O)O)C(=O)O)NC(=O)[C@H](CCC(N)=O)NC(=O)[C@H](C)NC(=O)[C@@H](NC(=O)[C@H](CCCCN)NC(=O)[C@H](CC(=O)O)NC(=O)[C@H](CC(C)C)NC(=O)C(C)(C)NC(=O)[C@@H](NC(=O)[C@H](CO)NC(=O)[C@H](Cc1ccc(O)cc1)NC(=O)[C@H](CC(=O)O)NC(=O)[C@H](CO)NC(=O)[C@@H](NC(=O)[C@H](Cc1ccccc1)NC(=O)[C@@H](NC(=O)CNC(=O)[C@H](CCC(=O)O)NC(=O)CCNC(=O)C(C)(C)c1ccc(F)c(F)c1)[C@@H](C)O)[C@@H](C)O)[C@@H](C)CC)[C@@H](C)CC)C(C)C)C(=O)N[C@@H](C)C(=O)NCC(=O)NCC(=O)N1CCC[C@H]1C(=O)N[C@@H](CO)C(=O)N[C@@H](CO)C(=O)NCC(=O)N[C@@H](C)C(=O)N1CCC[C@H]1C(=O)N1CCC[C@H]1C(=O)N1CCC[C@H]1C(=O)N[C@@H](CO)C(N)=O` [Compound 215] ({X17-βAla}-EGTFTSDYSI[Aib]LDKIAQK([AEEA-AEEA-γGlu-C20 diacid])AFVQWLIAGGPSSGAPPPS-NH2), the EC50 was < 1000 nM in assay [1] (setting [5]), > 1000 nM in assay [2] (setting [6]), 0.1 to 1 nM in assay [3] (setting [7]) and 0.1 to 1 nM in assay [4] (setting [9]). Also, the Emax in assay [3] (setting [8]) was 99%; in assay [4] (setting [10]), 98%.
